According to patent US7649013B2, “Methods of protecting against radiation injury” (priority 2003, dated 2010):
Entries after “also recorded” stand apart in the source; their conditions may differ.

How the values were obtained:
dogs = conditions: p.o. daily for one month; cited from earlier work
[1] = tested on: C57BL/6J inbred strain female mice; experiment: Quantitative spleen cellularity after whole body irradiation, trypan blue exclusion count (Example 7b); assay type: in vivo; conditions: 40 mg/kg i.p. 0.5 hour before 8 Gy; day five and eight; P=0.00035
Method: Spleen cellularity is quantitatively assessed following whole body gamma irradiation in mice, with and without pretreatment with β-lapachone, as follows. β-lapachone is prepared at 10 mg/ml in 40% hydroxypropyl-beta-cyclodextrin (HPBCD). C57BL/6J inbred strain female mice (4-5 weeks old) are organized into three groups of six mice each: Group I mice receive no radiation, no β-lapachone, and no carrier; Group II mice receive radiation and are injected with carrier (40% HPBCD 4 ml/kg body weight); and Group III mice are injected intraperitoneally at 0.5 hour before irradiation with β-lapachone (40 mg/kg body weight). […] Three mice in each of Groups I, II, and III are sacrificed on day five following irradiation, and a quantitative analysis of splenic cellularity is performed for each. The remaining mice are sacrificed on day eight following irradiation, and a quantitative analysis of splenic cellularity is performed for each.
For quantitative analysis for splenic cellularity, spleens are processed into single cell suspensions and erythrocytes are lysed in 2 ml lysis buffer (0.01 M KHCO3, 0.154 M NH4Cl, 0.01 mM EDTA). The remaining leukocytes are washed, suspended and counted in a hemacytometer using the trypan blue exclusion method.

rats = conditions: p.o. daily for one month; cited from earlier work
[2] = tested on: Chk2 in human cervical cancer cells (HeLa); experiment: Chk2 phosphorylation by immunoblotting of whole cell lysates; assay type: cell-based; conditions: 4 μM
Method: Human cervical cancer cells (HeLa) are treated with 4 μM β-lapachone for 0, 3, 10, 30, 60 and 120 minutes. Whole cell lysates are prepared, separated by SDS-PAGE, and analyzed by immunoblotting with anti-Chk2 and anti-phosphorylated-Chk2 antibodies.

[3] = tested on: C57BL/6J inbred strain female mice; experiment: Survival after 8 Gy whole body γ-irradiation, oral 200 mg/kg at varying time points before (Example 6); assay type: in vivo; conditions: for No. of animals surviving at 20 days post-irradiation: 10 animals; for Death rate (%): 20 days
Method: (§1) β-lapachone is prepared at 10 mg/ml in 40% hydroxypropyl-beta-cyclodextrin (HPBCD).
(§2) C57BL/6J inbred strain female mice (4-5 weeks old) are used. Animals are maintained in a climate-controlled animal facility.
β-lapachone (200 mg/kg body weight) is orally administered to animals at either 0.5 hour, 1 hour, 2 hours, 4 hours or 6 hours before irradiation.
Whole body irradiation of animals with 8 Gy of γ-rays is carried out in air at room temperature in a gamma chamber (Gammacell 40 Exactor), at a dose-rate of 1.05 Gy/min. This radiation dose is within the range of equivalent human exposures predicted in many scenarios of radiologic or nuclear terrorist attack. […]
Group III: β-lapachone (200 mg/kg body weight) is orally administered to mice 6 hours before radiation.
Group IV: β-lapachone (200 mg/kg body weight) is orally administered to mice 4 hours before radiation.
Group V: β-lapachone (200 mg/kg body weight) is orally administered to mice 2 hours before radiation.
Group VI: β-lapachone (200 mg/kg body weight) is orally administered to mice 1 hour before radiation.
Group VII: β-lapachone (200 mg/kg body weight) is orally administered to mice 0.5 hour before radiation.
(§3) Animals are irradiated with 8 Gy at 1.05 Gy/min dose-rate. After irradiation mice are returned to their cage and observed on a regular basis. Exposure to γ-rays causes lethality in animals. Importantly, treatment with β-lapachone, especially at a level of 200 mg/kg orally at one hour prior to irradiation, diminishes the death rate.

[4] = tested on: C57BL/6J inbred strain female mice; experiment: Survival after 8 Gy whole body γ-irradiation, intraperitoneal 40 mg/kg at varying time points (Example 5); assay type: in vivo; conditions: for No. of animals surviving at 68 days post-irradiation: 8 animals; for Death rate (%): 68 days
Method: as §1, §2
The animals are injected intraperitoneally with β-lapachone (40 mg/kg body weight) either 0.5 hour, 1 hour, or 4 hours before irradiation, or 10 minutes or 1 hour after irradiation.
Whole body irradiation of animals with 8 Gy of γ-rays is carried out in air at room temperature in a gamma chamber (Gammacell 40 Exactor) with a dose-rate of 1.05 Gy/min. This radiation dose is within the range of equivalent human exposures predicted in many scenarios of radiologic or nuclear terrorist attack.
Mice are divided in following groups (each Group comprises eight mice receiving identical treatment):
Group III: Mice are injected with β-lapachone 40 mg/kg body weight 4 hours before radiation.
Group IV: Mice are injected with β-lapachone 40 mg/kg body weight 1 hour before radiation.
Group V: Mice are injected with β-lapachone 40 mg/kg body weight 0.5 hours before radiation.
Group VI: Mice are injected with β-lapachone 40 mg/kg body weight 10 minutes after radiation.
Group VII: Mice are injected with β-lapachone 40 mg/kg body weight 1 hour after radiation.
as §3, with “40” for “200”, “either 4, 1, or 0.5 hours” for “orally at one hour”

[5] = 200 mg/kg p.o. 0.5 hr before Radiation 8 Gy
[6] = 200 mg/kg p.o. 1 hr before Radiation 8 Gy
[7] = 200 mg/kg p.o. 2 hr before Radiation 8 Gy
[8] = 200 mg/kg p.o. 4 hr before Radiation 8 Gy
[9] = 200 mg/kg p.o. 6 hr before Radiation 8 Gy
[10] = 40 mg/kg i.p. 10 min after Radiation 8 Gy
[11] = 40 mg/kg i.p. 0.5 hr before Radiation 8 Gy
[12] = 40 mg/kg i.p. 1 hr after Radiation 8 Gy
[13] = 40 mg/kg i.p. 1 hr before Radiation 8 Gy
[14] = 40 mg/kg i.p. 4 hr before Radiation 8 Gy

## CC1(C)CCC2=C(O1)c1ccccc1C(=O)C2=O [β-lapachone, 3,4-dihydro-2,2-dimethyl-2H-naphtho[1,2-b]pyran-5,6-dione]
dogs
  Maximum tolerated dose: 100 mg/kg
[1]
  Splenic cellularity, quantitative (FIG. 9): significantly preserved cellularity
rats
  Maximum tolerated dose: 200 mg/kg
[2]
  Time at which phosphorylated Chk2 levels appear: 10 min
[2]; 0-120 minutes
  Phosphorylated Chk2 (p-Chk2) level / proportion of phosphorylated Chk2: induces an increase in the proportion of phosphorylated Chk2; also recorded: sustained increase
  Total amount of Chk2 within the cells: remains unchanged
[3]; [5]
  Median survival time: 10 days
  No. of animals surviving at 20 days post-irradiation: 0
  Death rate (%): 100%
[3]; 200 mg/kg p.o. 1 hour prior to 8 Gy
  Survival of the treated mice at day 50 post irradiation (FIG. 7): more than 30%
[3]; [6]
  Median survival time: 18 days
  No. of animals surviving at 20 days post-irradiation: 3
  Death rate (%): 70%
[3]; [7]
  Median survival time: 10 days
  No. of animals surviving at 20 days post-irradiation: 0
  Death rate (%): 100%
[3]; [8]
  Median survival time: 14 days
  No. of animals surviving at 20 days post-irradiation: 0
  Death rate (%): 100%
[3]; [9]
  Median survival time: 18 days
  No. of animals surviving at 20 days post-irradiation: 1
  Death rate (%): 90%
[4]; [10]
  Median survival time: 14 days
  No. of animals surviving at 68 days post-irradiation: 0
  Death rate (%): 100%
[4]; 40 mg/kg i.p. 0.5 hr before Radiation 8 Gy (no death)
  Median survival time: >68 days
[4]; [11]
  No. of animals surviving at 68 days post-irradiation: 8
  Death rate (%): 0%
[4]; [12]
  Median survival time: 16 days
  No. of animals surviving at 68 days post-irradiation: 0
  Death rate (%): 100%
[4]; [13]
  Median survival time: 68 days
  No. of animals surviving at 68 days post-irradiation: 4
  Death rate (%): 50%
[4]; [14]
  Median survival time: 21 days
  No. of animals surviving at 68 days post-irradiation: 2
  Death rate (%): 75%
[4]; 40 mg/kg i.p. at 0.5, 1.0 or four hours prior to 8 Gy, vs control decline at 16-20 days
  Temporal survival pattern (FIG. 6): delayed this early decline in survival
